Test results as given in patent US9399626B2, “2-thiopyrimidinones” (Pfizer Inc., priority 2011, dated 2016).

Each molecule was assayed against T1, MPO (purified from human polynuclear leukocytes) (Homo sapiens, UniProt P05164) (assay: MPO Amplex Red Activity Assay). Details: Table 1A, 2 μM H2O2, pH 7.4.
T1 construct: purified from human polynuclear leukocytes; purchased Calbiochem/EMD Biosciences; host or cells: human polynuclear leukocytes (natural source)
Assay type: biochemical
Outline: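 Potency is given as kinact/KI: kobs values from 600 s progress curves, minus the uninhibited rate, are fit against inhibitor concentration. Reactions use 2 μM H2O2, 30 μM Amplex Red, pH 7.4 phosphate buffer with NaCl, DTPA and 2% DMSO, started with […] human MPO. Readout is resorufin fluorescence, catalase background subtracted.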

T1 sequence (P05164 279-745 limits assumed): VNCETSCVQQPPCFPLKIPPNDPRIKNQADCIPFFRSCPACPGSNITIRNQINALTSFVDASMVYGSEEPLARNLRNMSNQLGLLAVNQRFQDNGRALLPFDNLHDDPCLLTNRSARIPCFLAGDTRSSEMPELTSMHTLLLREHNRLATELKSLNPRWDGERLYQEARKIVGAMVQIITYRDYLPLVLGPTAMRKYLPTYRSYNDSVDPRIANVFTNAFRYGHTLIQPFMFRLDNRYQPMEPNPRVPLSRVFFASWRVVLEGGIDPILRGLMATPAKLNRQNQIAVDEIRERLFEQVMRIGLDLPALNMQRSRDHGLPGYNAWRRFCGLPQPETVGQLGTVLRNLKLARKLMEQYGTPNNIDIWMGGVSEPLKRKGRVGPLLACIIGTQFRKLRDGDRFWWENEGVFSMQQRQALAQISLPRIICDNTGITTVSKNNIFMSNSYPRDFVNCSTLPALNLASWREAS
T1 sequence (P05164 165-273 limits assumed): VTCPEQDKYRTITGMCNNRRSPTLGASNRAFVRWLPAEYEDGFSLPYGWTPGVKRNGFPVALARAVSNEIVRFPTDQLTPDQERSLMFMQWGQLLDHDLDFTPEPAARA

SMILES | MPO kinact/Ki
COc1cccc(-c2cc(=O)[nH]c(=S)n2CC(N)=O)c1 [Example 384, 2-[6-(3-methoxyphenyl)-4-oxo-2-thioxo-3,4-dihydropyrimidin-1(2H)-yl]acetamide] | 2930 1/s per M
COc1ccc(-c2cc(=O)[nH]c(=S)n2CC(=O)NCCO)c(OC)c1 [Example 385, 2-[6-(2,4-dimethoxyphenyl)-4-oxo-2-thioxo-3,4-dihydropyrimidin-1(2H)-yl]-N-(2-hydroxyethyl)acetamide] | 3530 1/s per M
COc1cccc(OC)c1-c1cc(=O)[nH]c(=S)n1CC(N)=O [Example 386, 2-[6-(2,6-dimethoxyphenyl)-4-oxo-2-thioxo-3,4-dihydropyrimidin-1(2H)-yl}acetamide] | 4960 1/s per M
COc1cc(OCCO)ccc1-c1cc(=O)[nH]c(=S)n1CC(N)=O [Example 387, 2-{6-[4-(2-hydroxyethoxy)-2-methoxyphenyl]-4-oxo-2-thioxo-3,4-dihydropyrimidin-1(2H)-yl}acetamide] | 4720 1/s per M
COc1ccc(-c2cc(=O)[nH]c(=S)n2CC(=O)N[C@@H]2CCNC2)c(OC)c1 [Example 388, 2-[6-(2,4-dimethoxyphenyl)-4-oxo-2-thioxo-3,4-dihydropyrimidin-1(2H)-yl]-N-[(3R)-pyrrolidin-3-yl]acetamide] | 8690 1/s per M
COc1ccc(-c2cc(=O)[nH]c(=S)n2CC(=O)N2CC[C@@H](N)C2)c(OC)c1 [Example 389, 1-{2-[(3R)-3-aminopyrrolidin-1-yl]-2-oxoethyl}-6-(2,4-dimethoxyphenyl)-2-thioxo-2,3-dihydropyrimidin-4(1H)-one] | 4910 1/s per M
COc1ccc(-c2cc(=O)[nH]c(=S)n2CC(=O)N(C)CCN)c(OC)c1 [Example 390, N-(2-aminoethyl)-2-[6-(2,4-dimethoxyphenyl)-4-oxo-2-thioxo-3,4-dihydropyrimidin-1(2H)-yl]-N-methylacetamide] | 6250 1/s per M
CNCCNC(=O)Cn1c(-c2ccc(OC)cc2OC)cc(=O)[nH]c1=S [Example 391, 2-[6-(2,4-dimethoxyphenyl)-4-oxo-2-thioxo-3,4-dihydropyrimidin-1(2H)-yl]-N-[2-(methylamino)ethyl]acetamide] | 3480 1/s per M
COc1ccc(-c2cc(=O)[nH]c(=S)n2CC(=O)NCCN(C)C)c(OC)c1 [Example 392, 2-[6-(2,4-dimethoxyphenyl)-4-oxo-2-thioxo-3,4-dihydropyrimidin-1(2H)-yl]-N-[2-(dimethylamino)ethyl]acetamide] | 5830 1/s per M
COc1ccc(-c2cc(=O)[nH]c(=S)n2CC(=O)N[C@H]2CCNC2)c(OC)c1 [Example 393, 2-[6-(2,4-dimethoxyphenyl)-4-oxo-2-thioxo-3,4-dihydropyrimidin-1(2H)-yl]-N-[(3S)-pyrrolidin-3-yl]acetamide] | 13600 1/s per M
COc1ccc(-c2cc(=O)[nH]c(=S)n2CC(=O)N[C@@H](C)CN)c(OC)c1 [Example 394, N-[(2S)-1-aminopropan-2-yl]-2-[6-(2,4-dimethoxyphenyl)-4-oxo-2-thioxo-3,4-dihydropyrimidin-1(2H)-yl]acetamide] | 4020 1/s per M
COc1ccc(-c2cc(=O)[nH]c(=S)n2CC(=O)NC[C@@H](C)N)c(OC)c1 [Example 395, N-[(2R)-2-aminopropyl]-2-[6-(2,4-dimethoxyphenyl)-4-oxo-2-thioxo-3,4-dihydropyrimidin-1(2H)-yl]acetamide] | 6980 1/s per M
COc1ccc(-c2cc(=O)[nH]c(=S)n2CC(=O)NC[C@H](C)N)c(OC)c1 [Example 396, N-[(2S)-2-aminopropyl]-2-[6-(2,4-dimethoxyphenyl)-4-oxo-2-thioxo-3,4-dihydropyrimidin-1(2H)-yl]acetamide] | 10900 1/s per M
COc1ccc(-c2cc(=O)[nH]c(=S)n2CC(=O)N2CCNCC2)c(OC)c1 [Example 397, 6-(2,4-dimethoxyphenyl)-1-[2-oxo-2-(piperazin-1-yl)ethyl]-2-thioxo-2,3-dihydropyrimidin-4(1H)-one] | 4050 1/s per M
COc1ccc(-c2cc(=O)[nH]c(=S)n2CC(=O)N2CC[C@H](N)C2)c(OC)c1 [Example 398, 1-{2-[(3S)-3-aminopyrrolidin-1-yl]-2-oxoethyl}-6-(2,4-dimethoxyphenyl)-2-thioxo-2,3-dihydropyrimidin-4(1H)-one] | 4780 1/s per M
COc1ccc(-c2cc(=O)[nH]c(=S)n2CC(=O)NCCNC(=O)[C@H](C)N)c(OC)c1 [Example 399, N-[2-({[6-(2,4-dimethoxyphenyl)-4-oxo-2-thioxo-3,4-dihydropyrimidin-1(2H)-yl]acetyl}amino)ethyl]-L-alaninamide] | 4860 1/s per M
CNCCN(C)C(=O)Cn1c(-c2ccc(OC)cc2OC)cc(=O)[nH]c1=S [Example 400, 2-[6-(2,4-dimethoxyphenyl)-4-oxo-2-thioxo-3,4-dihydropyrimidin-1(2H)-yl]-N-methyl-N-[2-(methylamino)ethyl]acetamide] | 2650 1/s per M

SMILES | MPO kinact/Ki
COc1ccc(-c2cc(=O)[nH]c(=S)n2CC(=O)N[C@H](C)CN)c(OC)c1 [Example 401, N-[(2R)-1-aminopropan-2-yl]-2-[6-(2,4-dimethoxyphenyl)-4-oxo-2-thioxo-3,4-dihydropyrimidin-1(2H)-yl]acetamide] | 4060 1/s per M
COc1ccc(-c2cc(=O)[nH]c(=S)n2CCCN)c(OCCO)c1 [Example 402, 1-(3-aminopropyl)-6-[2-(2-hydroxyethoxy)-4-methoxyphenyl]-2-thioxo-2,3-dihydropyrimidin-4(1H)-one] | 4810 1/s per M
COc1ccc(-c2cc(=O)[nH]c(=S)n2CCCNC(=N)N)c(OCCO)c1 [Example 403, 1-(3-{6-[2-(2-hydroxyethoxy)-4-methoxyphenyl]-4-oxo-2-thioxo-3,4-dihydropyrimidin-1(2H)-yl}propyl)guanidine] | 13300 1/s per M
COc1ccc(-c2cc(=O)[nH]c(=S)n2CC(=O)NCCN)c(OCCO)c1 [Example 404, N-(2-aminoethyl)-2-{6-[2-(2-hydroxyethoxy)-4-methoxyphenyl]-4-oxo-2-thioxo-3,4-dihydropyrimidin-1(2H)-yl}acetamide] | 6200 1/s per M
NCCNC(=O)Cn1c(-c2cc(F)ccc2OCCO)cc(=O)[nH]c1=S [Example 405, N-(2-aminoethyl)-2-{6-[5-fluoro-2-(2-hydroxyethoxy)phenyl]-4-oxo-2-thioxo-3,4-dihydropyrimidin-1(2H)-yl}acetamide] | 5970 1/s per M
NCCCn1c(-c2cc(F)ccc2OCCO)cc(=O)[nH]c1=S [Example 406, 1-(3-aminopropyl)-6-[5-fluoro-2-(2-hydroxyethoxy)phenyl]-2-thioxo-2,3-dihydropyrimidin-4(1H)-one] | 4480 1/s per M
N=C(N)NCCCn1c(-c2cc(F)ccc2OCCO)cc(=O)[nH]c1=S [Example 407, 1-(3-{6-[5-fluoro-2-(2-hydroxyethoxy)phenyl]-4-oxo-2-thioxo-3,4-dihydropyrimidin-1(2H)-yl}propyl)guanidine] | 18700 1/s per M
COc1ccc(-c2cc(=O)[nH]c(=S)n2CCC#N)c(OC)c1 [Example 408, 3-[6-(2,4-dimethoxyphenyl)-4-oxo-2-thioxo-3,4-dihydropyrimidin-1(2H)-yl]propanenitrile] | 9890 1/s per M
COc1ccc(-c2cc(=O)[nH]c(=S)n2CCO)c(OCCO)c1 [Example 409, 6-[2-(2-hydroxyethoxy)-4-methoxyphenyl]-1-(2-hydroxyethyl)-2-thioxo-2,3-dihydropyrimidin-4(1H)-one] | 18000 1/s per M
COc1ccc(-c2cc(=O)[nH]c(=S)n2CC(N)=O)cc1 [Example 410, 2-[6-(4-methoxyphenyl)-4-oxo-2-thioxo-3,4-dihydropyrimidin-1(2H)-yl]acetamide] | 3150 1/s per M
O=c1cc(-c2cc(F)ccc2OCCO)n(CCO)c(=S)[nH]1 [Example 411, 6-[5-fluoro-2-(2-hydroxyethoxy)phenyl]-1-(2-hydroxyethyl)-2-thioxo-2,3-dihydropyrimidin-4(1H)-one] | 15000 1/s per M
NC(=O)Cn1c(-c2cc(F)ccc2OCCO)cc(=O)[nH]c1=S [Example 412, 2-{6-[5-fluoro-2-(2-hydroxyethoxy)phenyl]-4-oxo-2-thioxo-3,4-dihydropyrimidin-1(2H)-yl}acetamide] | 3980 1/s per M
O=c1cc(-c2ccc(F)cc2OCCO)n(CCO)c(=S)[nH]1 [Example 413, 6-[4-fluoro-2-(2-hydroxyethoxy)phenyl]-1-(2-hydroxyethyl)-2-thioxo-2,3-dihydropyrimidin-4(1H)-one] | 6560 1/s per M
NC(=O)Cn1c(-c2ccc(F)cc2OCCO)cc(=O)[nH]c1=S [Example 414, 2-{6-[4-fluoro-2-(2-hydroxyethoxy)phenyl]-4-oxo-2-thioxo-3,4-dihydropyrimidin-1(2H)-yl}acetamide] | 1680 1/s per M
NCCNC(=O)Cn1c(-c2ccc(F)cc2OCCO)cc(=O)[nH]c1=S [Example 415, N-(2-aminoethyl)-2-{6-[4-fluoro-2-(2-hydroxyethoxy)phenyl]-4-oxo-2-thioxo-3,4-dihydropyrimidin-1(2H)-yl}acetamide] | 3910 1/s per M
COc1cccc(-c2cc(=O)[nH]c(=S)n2CC(N)=O)c1OC [Example 416, 2-[6-(2,3-dimethoxyphenyl)-4-oxo-2-thioxo-3,4-dihydropyrimidin-1(2H)-yl]acetamide] | 4480 1/s per M
COc1cc(Cl)ccc1-c1cc(=O)[nH]c(=S)n1CC(N)=O [Example 417, 2-[6-(4-chloro-2-methoxyphenyl)-4-oxo-2-thioxo-3,4-dihydropyrimidin-1(2H)-yl]acetamide] | 9280 1/s per M
